Data published in patent US8808715B1, “Methods and compositions for modulating keratinocyte function” (Georgia Regents Research Institute, Inc, priority 2004, dated 2014).

How the values were obtained:
[1] = test system: rapidly dividing keratinocytes; test: Assay of DNA synthesis ([3H]thymidine incorporation) in rapidly dividing keratinocytes; type: cell-based; conditions: for effect on DNA synthesis in presence of 125 μM Ca2+ / effect on DNA synthesis ([3H]thymidine incorporation into DNA) / concentration of maximal inhibition of DNA synthesis / inhibition of DNA synthesis compared with egg-derived PG / lowest concentration at which inhibition of DNA synthesis was observed / inhibition of DNA synthesis, percent of control (in words): 24 hours; for effect on DNA synthesis in presence of 125 μM Ca2+: 125 μM Ca2+ medium; for effect on DNA synthesis ([3H]thymidine incorporation into DNA): control (25 μM Ca2+) medium; for concentration at which DNA synthesis was inhibited / inhibition of DNA synthesis, percent of control (in words): FIG. 21B; for concentration at which DNA synthesis was inhibited: lowest tested 25 μg/mL, highest tested 100 μg/mL; for concentration of maximal inhibition of DNA synthesis / inhibition of DNA synthesis compared with egg-derived PG / lowest concentration at which inhibition of DNA synthesis was observed: liposomes; for inhibition of DNA synthesis compared with egg-derived PG / lowest concentration at which inhibition of DNA synthesis was observed: FIG. 20A; for inhibition of DNA synthesis, percent of control (in words): PG versus PP headgroup species
Experimental: (§1) Keratinocytes were prepared from ICR CD-I outbred mice in accordance with a protocol approved by the Institutional Animal Care and Use Committee. Briefly, the skins were harvested and incubated overnight in 0.25% trypsin at 4° C. The epidermis and dermis were separated and basal keratinocytes scraped from the underside of the epidermis. The cells were collected by centrifugation and incubated overnight in an atmosphere of 95% air/5% carbon dioxide at 37° C. in plating medium as described in Dodd M E, Ristich V L, Ray S, Lober R M, Bollag W B (2005) Regulation of protein kinase D during differentiation and proliferation of primary mouse keratinocytes. J Invest Dermatol 125:294-306, incorporated herein by reference. The plating medium was replaced with serum-free keratinocyte medium (SFKM) also as in Dodd, et al., and the cells were refed every 1-2 days with fresh medium until use.
(§2) [^3H]Thymidine incorporation into DNA was determined as a measure of DNA synthesis as previously described by Griner, et al., above. Near-confluent keratinocyte cultures were incubated for 24 hours in SFKM containing the indicated additions. PG was added in the form of liposomes prepared by bath sonication of dried PG in SFKM to make a stock solution of 2 mg/mL. [^3H]Thymidine at a final concentration of 1 μCi/mL was then added to the cells for an additional 1-hour incubation. Reactions were terminated by washing with PBS- and macromolecules precipitated with ice-cold 5% trichloroacetic acid. Cells were solubilized in 0.3 M NaOH and the radioactivity incorporated into DNA quantified by liquid scintillation spectroscopy.
(§3) [^3H]Thymidine incorporation was used as a measure of DNA synthesis and was performed as described in Example 2. Liposomes containing PG and functional derivatives thereof were prepared by bath sonication as described in Example 2, with the exception that different concentrations of material were employed.

AQP3 null mutant mouse = conditions: studies of the AQP3 null mutant mouse; cited from earlier work
[2] = test system: primary epidermal keratinocytes; test: Radiolabeled phosphatidylglycerol formation in intact keratinocytes; type: cell-based, mouse
Experimental: Primary epidermal keratinocytes were prepared from 1-3-day old neonatal ICR mice after trypsin flotation of the skin and mechanical separation of the epidermis from the dermis. The epidermal cells were released by scraping, collected by centrifugation and plated in 6-well dishes in a medium consisting of MEM containing 25 μM calcium, 2% dialyzed fetal bovine serum, 2 mM glutamine, 5 ng/mL EGF, ITS (6.25 μg/mL insulin+6.25 μg/mL transferrin+6.25 ng/mL selenious acid+5.35 μg/mL linoleic acid+1.25% bovine serum albumin), 100 U/mL penicillin, 100 μg/mL streptomycin and 0.25 μg/mL fungizone. After an overnight incubation, the cells were refed with serum-free keratinocyte medium (SFKM), in which 2% dialyzed fetal bovine serum was replaced with 90 μg/mL bovine pituitary extract. Cells were refed with fresh medium every 1-3 days.
For the PLD assay cultured primary keratinocytes were labeled for 20-24 hours with 2.5 μCi/ml [^3H] oleic acid. The cells were then exposed to vehicle or 100 nM PMA in the presence of 0.5% ethanol for 30 minutes. To measure the formation of radiolabeled phosphatidylglycerol, cells were treated for 24 hours with SFKM containing vehicle, 250 nM 1,25-dihydroxyvitamin D3 or 125 μM calcium and then labeled for an additional 30 minutes with 1-2.5 μCi/mL [^3H] or 0.4-0.5 μCi/mL [^14C]glycerol. For experiments investigating the extracellular calcium dependence of PG formation, cells were incubated for 24 hours in SFKM containing various calcium concentrations prior to the addition of 5 μCi/mL [^3H]glycerol for 30 minutes. In some cases, cells were stimulated with 25 μM calcium (control)—or 125 μM calcium-containing SFKM for 24 hours prior to the addition of [^14C]glycerol in the presence and absence of 1% ethanol. To measure phosphatidylglycerol formation in response to PMA, unlabeled cells were stimulated with 100 nM PMA in the presence of radiolabeled glycerol, as above. Reactions were terminated and the radiolabeled phosphatidylalcohol extracted, separated by thin-layer chromatography and quantified as described by Bollag (1998), referenced above.

[3] = test system: slowly dividing keratinocytes; test: Assay of DNA synthesis ([3H]thymidine incorporation) in slowly proliferating keratinocytes; type: cell-based, mouse; conditions: liposomes, 24 hours; for effect on DNA synthesis ([3H]thymidine incorporation into DNA): keratinocytes with reduced proliferation; for lowest concentration at which stimulation of DNA synthesis was observed / stimulation of DNA synthesis compared with egg-derived PG: FIG. 20B
Experimental: Confluent keratinocytes were treated for 24 hours with the indicated concentrations of phosphatidylglycerol (PG), prepared via bath sonication of PG in serum-free keratinocyte medium. [^3H]Thymidine incorporation into DNA was then determined as above. [^3H]Thymidine incorporation into DNA under control conditions was 12,880±1,040 cpm/well. Values represent the means±SEM of 3 separate experiments performed in duplicate; *p<0.01, **p<0.001 versus the control value.
as §1, §2, §3

## CC(O)CO (centres unmarked) [1,2-propylene glycol]
[1]
  effect on DNA synthesis in presence of 125 μM Ca2+: dose dependent inhibition
  effect on DNA synthesis ([3H]thymidine incorporation into DNA): dose dependent inhibition
AQP3 null mutant mouse
  correction of the epidermal phenotype of the knockout model: not

## OCCCO [1,3-propylene glycol]
AQP3 null mutant mouse
  correction of the epidermal phenotype of the knockout model: not

## C=C1/C(=C\C=C2/CCC[C@]3(C)[C@@H]([C@H](C)CCCC(C)(C)O)CC[C@@H]23)C[C@@H](O)C[C@@H]1O [1,25-dihydroxyvitamin D3]
[2]; 24 hours pretreatment (250 nM 1,25-dihydroxyvitamin D3 or 125 μM calcium), then [3H]glycerol 30 minutes
  radiolabeled PG formation relative to control cells: did not increase radiolabeled PG formation
[2]; intermediate (10 nM) and high (250 nM) concentrations, 24 hours
  PG production: significantly inhibited PG production

## CCCCCC(=O)OCC(COP(=O)(O)OCC(O)CO)OC(=O)CCCCC (centres unmarked) [DHPG, dihexanoyl-PG]
[3]
  effect on DNA synthesis ([3H]thymidine incorporation into DNA): only mildly stimulatory

## CCCCC/C=C\C/C=C\CCCCCCCC(=O)OC[C@H](COP(=O)(O)OCC(O)CO)OC(=O)CCCCCCC/C=C\C/C=C\CCCCC (some centres unmarked) [DLPG, dilinoleoyl-PG]
[1]
  effect on DNA synthesis ([3H]thymidine incorporation into DNA): inhibit DNA synthesis in a dose dependent manner
  concentration at which DNA synthesis was inhibited: ≤ 25 µg/mL
  concentration of maximal inhibition of DNA synthesis: 100 µg/mL
  inhibition of DNA synthesis compared with egg-derived PG: at least as strongly as egg-derived PG
  lowest concentration at which inhibition of DNA synthesis was observed: 6.25 µg/mL

## CCCCC/C=C\C/C=C\CCCCCCCC(=O)OC[C@H](COP(=O)(O)OCCC)OC(=O)CCCCCCC/C=C\C/C=C\CCCCC [DLPP, dilinoleoyl-PP]
[1]
  inhibition of DNA synthesis, percent of control (in words): not statistically significant
  concentration at which DNA synthesis was inhibited: 100 µg/mL

## CCCCCCCC/C=C\CCCCCCCC(=O)OC[C@H](COP(=O)(O)OCC(O)CO)OC(=O)CCCCCCC/C=C\CCCCCCCC (some centres unmarked) [DOPG, dioleoyl-PG]
[1]
  effect on DNA synthesis ([3H]thymidine incorporation into DNA): no inhibition of DNA synthesis
[3]
  concentration of maximal stimulation of DNA synthesis: 100 µg/mL
  lowest concentration at which stimulation of DNA synthesis was observed: 12.5 µg/mL
  stimulation of DNA synthesis compared with egg-derived PG: more potently than egg-derived PG
  effect on DNA synthesis ([3H]thymidine incorporation into DNA): potent stimulator of DNA synthesis

## CCCCCCCC/C=C\CCCCCCCC(=O)OC[C@H](COP(=O)(O)OCCC)OC(=O)CCCCCCC/C=C\CCCCCCCC [DOPP, dioleoyl-phosphatidylpropanol]
[1]
  effect on DNA synthesis ([3H]thymidine incorporation into DNA): no impact on DNA synthesis
  inhibition of DNA synthesis, percent of control (in words): lack of effect

## CCCCCCCCCCCCCCCC(=O)OCC(COP(=O)(O)OCC(O)CO)OC(=O)CCCCCCCCCCCCCCC (centres unmarked) [DPPG, dipalmitoyl-PG]
[3]
  lowest concentration at which stimulation of DNA synthesis was observed: 50 µg/mL
  stimulation of DNA synthesis compared with egg-derived PG: approximately the same level as egg-derived PG

## CCCCCCCCCCCCCCCC(=O)OC[C@H](COP(=O)(O)OCCC)OC(=O)CCCCCCCCCCCCCCC [DPPP, dipalmitoyl-PP]
[1]
  effect on DNA synthesis ([3H]thymidine incorporation into DNA): did not affect DNA synthesis
  inhibition of DNA synthesis, percent of control (in words): lack of effect

## CCCCC/C=C\C/C=C\C/C=C\C/C=C\CCCC(=O)O[C@H](COC(=O)CCCCCCCCCCCCCCC)COP(=O)(O)OCC(O)CO (some centres unmarked) [PAPG, palmitoyl-arachidonoyl-PG]
[1]
  effect on DNA synthesis ([3H]thymidine incorporation into DNA): inhibit DNA synthesis in a dose dependent manner
  concentration of maximal inhibition of DNA synthesis: 100 µg/mL
  inhibition of DNA synthesis compared with egg-derived PG: at least as strongly as egg-derived PG
  lowest concentration at which inhibition of DNA synthesis was observed: 12.5 µg/mL
[3]
  effect on DNA synthesis ([3H]thymidine incorporation into DNA): only mildly stimulatory

## CCCCCCCC/C=C\CCCCCCCC(=O)O[C@H](COC(=O)CCCCCCCCCCCCCCC)COP(=O)(O)OCC(O)CO (some centres unmarked) [POPG, palmitoyl-oleoyl-PG]
[1]
  effect on DNA synthesis ([3H]thymidine incorporation into DNA): moderate inhibition of DNA synthesis
  lowest concentration at which inhibition of DNA synthesis was observed: 100 µg/mL
[3]
  effect on DNA synthesis ([3H]thymidine incorporation into DNA): only mildly stimulatory

## CCO [ethanol]
[2]; 1% ethanol, 25 μM calcium control cells
  basal (control) PG production: without affecting basal (control) PG production
[2]; 1% ethanol, cells pretreated with 125 μM calcium, [14C]glycerol
  PG formation stimulated by preexposure to elevated extracellular calcium: significantly inhibited PG formation

## OC[C@@H](O)[C@@H](O)[C@H](O)[C@@H](O)CO [sorbitol]
[1]
  effect on DNA synthesis in presence of 125 μM Ca2+: no significant effect
  effect on DNA synthesis ([3H]thymidine incorporation into DNA): no significant effect

## OC[C@@H](O)[C@H](O)[C@@H](O)CO [xylitol]
[1]
  effect on DNA synthesis in presence of 125 μM Ca2+: no significant effect
  effect on DNA synthesis ([3H]thymidine incorporation into DNA): no significant effect
AQP3 null mutant mouse
  correction of the epidermal phenotype of the knockout model: not

## palmitoyl-linoleoyl-PG [PLPG]
[1]
  effect on DNA synthesis ([3H]thymidine incorporation into DNA): inhibit DNA synthesis in a dose dependent manner
  concentration of maximal inhibition of DNA synthesis: 100 µg/mL
  inhibition of DNA synthesis compared with egg-derived PG: at least as strongly as egg-derived PG
  lowest concentration at which inhibition of DNA synthesis was observed: 50 µg/mL
